# Test results from the NIST ThermoML archive (doi:10.1021/je010317u).
# ± gives the expanded uncertainty stated by the source.
# Test: refractive index (Na D-line) (dimensionless)
# Conditions: 298.15 K; 101.33 kPa; Liquid; Abbe refractometer
row,Compound,refractive index
1,"Cc1ccccc1C [1,2-dimethylbenzene]",1.5018 ± 0.0005
2,"Cc1cccc(C)c1 [1,3-dimethylbenzene]",1.4943 ± 0.0005
3,"Cc1ccc(C)cc1 [1,4-dimethylbenzene]",1.4925 ± 0.0005
4,c1ccccc1 [benzene],1.499 ± 0.0004
5,CCCCCCCCCCCC [dodecane],1.4275 ± 0.0005
6,CCCCCCCCCCCCCCCC [hexadecane],1.4325 ± 0.0005
7,CCCCCC [hexane],1.3728 ± 0.0005
8,Cc1ccccc1 [toluene],1.494 ± 0.0004
